Laboratory results from patent US12251401B2, “Synthesis and antimicrobial uses of dinuclear silver(I) pyrazolates” (The Florida International University Board of Trustees, priority 2018, dated 2025).
Read-outs that look alike come from different tables or passages of the source.

Tests used:
Pseudomonas aeruginosa = assay: Skin and soft tissue infection (SSTI) two-layer agar model, zone of inhibition around KBr pellets; type: cell-based; conditions: KBr pellet with 2% (w/w) of substance on P. aeruginosa lawn, incubation at 37° C. for 18 h
From the text: A skin and soft tissue infection (SSTI) model was used to study the antibacterial properties of three silver complexes. In this model, two layers of agar were employed to mimic a tissue infection with a nutrient rich bottom and the soft-top layer to allow for even dispersal of bacteria. The top soft agar acts like the skin and as bacteria grow they migrate towards the bottom nutrient layer mimicking an infected tissue. Frozen samples of Pseudomonas Aeruginosa were thawed and streaked on an agar plate. A single colony was selected and grown in Luria Broth (LB) for 18 h. The suspension was diluted with LB until an A600 (absorbance) of 0.5 was reached. The soft agar bacterial suspension was prepared by adding 120 mL of the above solution to 100 mL 0.8% (w/v) agar with 1% NaCl, which had been autoclaved and cooled to 45° C. before addition. The suspension was gently vortexed and 8 mL was spread evenly on the surface of 20 mL of a 1.5% (w/v) TSB agar plate (100×15 mm^2) and allowed to solidify. The plates were incubated for 2 h at 37° C. in order for the bacteria to reach log phase before bactericidal experiments were performed.
Blank KBr pellets (typically utilized for recording IR spectra) and KBr pellets with 2% (w/w) of three complexes (1), (2) and (5), each weighing between 34 and 46 mg, were evenly mulled and pressed with a two-ton load. Three blanks, containing PTA, or 4-Cl-pzH, or PPh3, were also prepared in the same manner. Pellets were carefully placed on the plates (see Example 8) after 2 h of incubation at 37° C.
A previously developed soft tissue infection (SSTI) model has been utilized for the present antibacterial studies. […] The gradient causes the bacteria to slowly travel from the slender top layer to the nutrient-rich bottom layer, much alike what would occur in a typical skin infection.

P. aeruginosa = assay: Bacterial eradication assessed using the optical density method; type: cell-based, Pseudomonas aeruginosa
From the text: FIGS. 51A-51B show the results of bacterial eradication by compounds of complex (5) and complex (29) assessed using the optical density method.
(§1) Both complex (5) and complex (29) were comparatively tested against P. aeruginosa.

Solubility (qualitative) = type: physicochemical
From the text: All complexes provided herein were neutral and soluble in variety of organic solvents.
as §1

| Compound | zone of bacterial clearing (zone of inhibition) (Pseudomonas aeruginosa) | other results |
| --- | --- | --- |
| disilver(I)-bis(μ-4-Cl-pyrazolido)tetrakis(PPh3) [complex (1)] | minimal bacterial clearance | – |
| O=[N+]([O-])[O-].[Ag+] [AgNO3, silver nitrate] | Visible circular zones of bacterial clearing | – |
| c1ccc(P(c2ccccc2)c2ccccc2)cc1 [PPh3, triphenylphosphine] | no zone of inhibition | – |
| C1N2CN3CN1CP(C2)C3 [PTA, 1,3,5-triazaphosphaadamantane] | much smaller but still visible zones of bacterial growth inhibition | – |
| disilver(I)-bis(μ-3-methyl-pyrazolido)bis(PTA) [complex (29)] | – | eradication of the bacterial culture (P. aeruginosa; P. aeruginosa, lowest concentration tested, 31.25 μg/mL): ~90%; solubility in water and several bacterial growth media (Solubility (qualitative)): readily soluble |
| Clc1cn[nH]c1 [4-Cl-pzH, 4-Cl-pyrazole] | much smaller but still visible zones of bacterial growth inhibition | – |
| disilver(I)-bis(μ-4-Cl-pyrazolido)tetrakis(PTA) [complex (5)] | Visible circular zones of bacterial clearing | IC50, eradication of the bacterial culture (P. aeruginosa; P. aeruginosa culture, optical density, increasing concentrations): > 2000 µg/mL; solubility in aqueous media (Solubility (qualitative); aqueous media): highly soluble; solubility in water and several bacterial growth media (Solubility (qualitative); water and several bacterial growth media): readily soluble |
| disilver(I)-bis(μ-4-Cl-pyrazolido)(PPh3)3 [complex (2)] | minimal bacterial clearance | – |
